Test results published in patent US20240124503A1, “HETEROAROMATIC PHOSPHONIUM SALTS AND THEIR USE TREATING CANCER” (FLORATEK PHARMA S.A., priority 2021, published 2024).

Experiments:
ABL1-nonphosphorylated = molecular target: T1, ABL1-nonphosphorylated (Homo sapiens, UniProt P00519); assay: KINOMEscan competition binding, ABL1-nonphosphorylated
T1 construct: purchased Eurofins (KINOMEscan); host or cells: E. coli BL21-derived host (T7 phage) or HEK-293
Method: (§1) Selected compounds were screened for kinase inhibition using the KINOMEscan™ assay (Eurofins) which is based on a competition binding assay that quantitatively measures the ability of a compound to compete with an immobilized, active-site directed ligand. The assay was performed by combining three components: DNA-tagged kinase; immobilized ligand; and the test compound. The ability of the test compound to compete with the immobilized ligand was measured via quantitative PCR of the DNA tag.
(§2) Kinase-tagged T7 phage strains were prepared in an E. coli host derived from the BL21 strain. E. coli were grown to log-phase and infected with T7 phage and incubated with shaking at 32° C. until lysis. The lysates were centrifuged and filtered to remove cell debris. The remaining kinases were produced in HEK-293 cells and subsequently tagged with DNA for qPCR detection. Streptavidin-coated magnetic beads were treated with biotinylated small molecule ligands for 30 minutes at room temperature to generate affinity resins for kinase assays. […] Kds were determined using an 11-point 3-fold compound dilution series with three DMSO control points. […] The kinase concentration in the eluates was measured by qPCR. […]
(§3) Binding constants (Kds) were calculated with a standard dose-response curve using the Hill equation: Response=Background+[Signal−Background/1+(Kd^Hill Slope/Dose^Hill Slope)] […]

RIOK2 = molecular target: T2, RIOK2 (Homo sapiens, UniProt Q9BVS4); assay: KINOMEscan competition binding, RIOK2
T2 construct: purchased Eurofins (KINOMEscan); host or cells: E. coli BL21-derived host (T7 phage) or HEK-293
T2 sequence (Q9BVS4 whole entry): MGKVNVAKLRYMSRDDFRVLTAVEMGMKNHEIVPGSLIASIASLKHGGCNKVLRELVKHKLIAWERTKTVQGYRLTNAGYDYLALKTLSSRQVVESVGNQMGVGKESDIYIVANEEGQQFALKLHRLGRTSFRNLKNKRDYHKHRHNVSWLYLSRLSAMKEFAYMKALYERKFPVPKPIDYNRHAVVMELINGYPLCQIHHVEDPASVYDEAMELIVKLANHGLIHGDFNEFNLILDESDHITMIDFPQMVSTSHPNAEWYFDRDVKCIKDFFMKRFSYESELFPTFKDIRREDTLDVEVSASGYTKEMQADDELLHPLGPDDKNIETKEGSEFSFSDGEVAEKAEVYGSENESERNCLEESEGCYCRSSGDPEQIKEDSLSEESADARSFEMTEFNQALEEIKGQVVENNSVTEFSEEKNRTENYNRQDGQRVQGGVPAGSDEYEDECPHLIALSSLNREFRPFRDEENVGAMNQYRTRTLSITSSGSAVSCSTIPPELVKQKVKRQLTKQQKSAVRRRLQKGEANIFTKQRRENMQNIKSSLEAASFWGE
Method: as §1, §2, §3

esophagus PDX = assay: Cell viability, esophagus PDX (panel statement); type: cell-based; details: text summary of Table 9; read-out: IC50, esophagus PDX growth
Method: PDX-derived cell cultures were obtained from tumors explanted from mice and isolated by mechanical and enzymatic dissociation. […] Cells were harvested and seeded in 96-wells plates at a density of 1.25 to 5×10^3 cells/well for cytotoxicity assays. Cells were incubated 48 h at 37° C. prior to addition of test molecules and vehicle (DMSO, 0.1%) at desired final concentrations. Cell viability was assessed before drugs' addition (To) and 5 days after test molecules addition by measuring ATP cell content using CellTiter-Glo® Luminescent Cell Viability Assay (Promega) according to the manufacturer's instructions. Luciferase activity was measured on a luminometer (PerkinElmer® EnVision™). Each concentration of compounds was tested in triplicate.
Viability was calculated as a percentage of ATP value compared to vehicle treated controls.
For PDX primary cell cultures, the tumour tissue was washed with PBS containing antibiotic-antimycotic and non-tumour tissue and necrotic tumour tissues were separated. The tumour tissue was transferred to a new dish and cut into 1˜2 mm^3 fragments, resuspended in RPMI-1640 medium and centrifuged at 1,200 rpm for 6 min at room temperature. The pelleted material was resuspended with 15 mL of Tumour Cell Digestion Solution and incubated at 37° C. for 1 hour with agitation. […]

T1 sequence (P00519 whole entry): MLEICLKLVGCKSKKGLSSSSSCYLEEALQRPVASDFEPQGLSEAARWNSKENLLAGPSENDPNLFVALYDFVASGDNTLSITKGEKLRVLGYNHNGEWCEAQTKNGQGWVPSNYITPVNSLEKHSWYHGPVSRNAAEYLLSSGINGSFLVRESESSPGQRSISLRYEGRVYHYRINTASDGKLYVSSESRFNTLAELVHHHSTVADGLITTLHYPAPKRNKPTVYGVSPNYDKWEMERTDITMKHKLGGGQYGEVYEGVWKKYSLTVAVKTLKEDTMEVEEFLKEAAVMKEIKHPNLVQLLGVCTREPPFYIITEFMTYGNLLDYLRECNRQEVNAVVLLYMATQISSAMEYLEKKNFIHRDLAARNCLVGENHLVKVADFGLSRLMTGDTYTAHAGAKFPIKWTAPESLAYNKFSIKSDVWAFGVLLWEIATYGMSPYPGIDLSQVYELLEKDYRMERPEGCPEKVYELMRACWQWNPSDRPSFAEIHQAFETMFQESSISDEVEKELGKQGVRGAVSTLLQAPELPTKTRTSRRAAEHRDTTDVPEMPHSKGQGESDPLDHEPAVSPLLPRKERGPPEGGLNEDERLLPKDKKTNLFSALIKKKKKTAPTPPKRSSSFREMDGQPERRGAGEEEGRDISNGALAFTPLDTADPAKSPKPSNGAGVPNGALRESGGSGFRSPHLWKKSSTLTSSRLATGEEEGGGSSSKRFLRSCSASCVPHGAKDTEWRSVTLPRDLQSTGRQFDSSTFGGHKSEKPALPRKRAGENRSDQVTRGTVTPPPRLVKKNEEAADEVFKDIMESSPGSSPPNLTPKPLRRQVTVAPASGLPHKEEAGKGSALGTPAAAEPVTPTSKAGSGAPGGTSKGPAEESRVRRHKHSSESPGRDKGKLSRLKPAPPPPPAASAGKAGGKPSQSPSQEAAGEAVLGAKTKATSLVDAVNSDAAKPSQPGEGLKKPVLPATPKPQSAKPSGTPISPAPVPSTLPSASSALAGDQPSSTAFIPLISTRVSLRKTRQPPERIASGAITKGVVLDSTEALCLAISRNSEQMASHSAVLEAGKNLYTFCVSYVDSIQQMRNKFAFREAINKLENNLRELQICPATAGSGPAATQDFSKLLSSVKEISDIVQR

Kd (ABL1-nonphosphorylated): 460 nM
Kd (RIOK2): 710 nM
SMILES: COc1c(O)ccc2c(=O)c(O)c(-c3ccc(CCCC[P+](c4ccccc4)(c4ccccc4)c4ccccc4)cc3)oc12 [SND190, (4-(4-(3,7-Dihydroxy-8-methoxy-4-oxo-4H1-chromen-2-yl)phenyl)butyl)triphenylphosphonium bromide]
IC50 (esophagus PDX): < 20000 nM
